Key:
[1] = logP determination by HPLC on reverse-phase column (C 18), acidic range pH 2.3; type: physicochemical; conditions: for chromatographic logP: reverse-phase HPLC column (C 18)
Description: The logP values given in Table 1 were determined with EEC Directive 79/831 Annex V.A8 by HPLC (High Performance Liquid Chromatography) on a reverse-phase column (C 18). Temperature: 43° C. Mobile phases for the determination in the acidic range (pH 2.3): 0.1% aqueous phosphoric acid, acetonitrile; linear gradient from 10% acetonitrile to 90% acetonitrile. Calibration was carried out using unbranched alkan-2-ones (having 3 to 16 carbon atoms) with known logP values (determination of the logP values by the retention times using linear interpolation between two successive alkanones).

Botrytis cinerea = test: Botrytis test (bean)/protective; type: in vivo; conditions: 48 h, bean plants, protective, application rate 500 g/ha, evaluation 2 days after inoculation, read-out: Efficacy in %
Description: (§1) To produce a suitable preparation of active compound, 1 part by weight of active compound is mixed with the stated amounts of solvents and emulsifier, and the concentrate is diluted with water to the desired concentration.
To test for protective activity, young plants are sprayed with the preparation of active compound at the stated application rate. After the spray coating has dried on, 2 small pieces of agar colonized by Botrytis cinerea are placed onto each leaf. The inoculated plants are placed in a dark chamber at about 20° C. and 100% relative atmospheric humidity.
2 days after the inoculation, the size of the infected areas on the leaves is evaluated. 0% means an efficacy which corresponds to that of the control, whereas an efficacy of 100% means that no infection is observed.

[2] = tested on: apple scab pathogen Venturia inaequalis; test: Venturia test (apple)/protective; type: in vivo; conditions: apple plants, protective; application rate 100 g/ha; evaluation 10 days after inoculation
Description: as §1
To test for protective activity, young plants are sprayed with the preparation of active compound at the stated application rate. After the spray coating has dried on, the plants are inoculated with an aqueous conidia suspension of the apple scab pathogen Venturia inaequalis and then remain in an incubation cabin at about 20° C. and 100% relative atmospheric humidity for 1 day.
The plants are then placed in a greenhouse at about 21° C. and a relative atmospheric humidity of about 90%.
(§2) Evaluation is carried out 10 days after the inoculation. 0% means an efficacy which corresponds to that of the control, whereas an efficacy of 100% means that no infection is observed.

Puccinia recondita = test: Puccinia test (wheat)/protective; type: in vivo; conditions: 240 h, wheat plants, protective, application rate 500 g/ha, evaluation 10 days after inoculation, read-out: Efficacy in %
Description: (§3) To produce a suitable preparation of active compound, 1 part by weight of active compound is mixed with the stated amounts of solvent and emulsifier, and the concentrate is diluted with water to the desired concentration.
To test for protective activity, young plants are inoculated with a spore suspension of Puccinia recondita in a 0.1% strength aqueous agar solution. After the spray coating has dried on, the plants are sprayed with the preparation of active compound at the stated application rate. The plants remain in an incubation cabin at 20° C. and 100% relative atmospheric humidity for 24 hours.
The plants are then placed in a greenhouse at a temperature of about 20° C. and a relative atmospheric humidity of 80% to promote the development of rust pustules.
as §2

Alternaria solani = test: Alternaria test (tomato)/protective; type: in vivo; conditions: tomato plants, protective; application rate 750 g/ha; evaluation 7 days after inoculation
Description: as §3
To test for protective activity, young tomato plants are sprayed with the preparation of active compound at the stated application rate. 1 day after the treatment, the plants are inoculated with a spore suspension of Alternaria solani and then remain at 100% relative atmospheric humidity and 20° C. for 24 hours. The plants then remain at 96% relative atmospheric humidity and a temperature of 20° C.
Evaluation is carried out 7 days after the inoculation. 0% means an efficacy which corresponds to that of the control, whereas an efficacy of 100% means that no infection is observed.

[3] = HPLC, C 18 reverse-phase, 43° C.

| Compound | logP (pH 2.3) [1, 3] | further results |
| --- | --- | --- |
| O=C(Nc1ccccc1-c1ccc(/C=N\OCC2CC2)cc1)c1cccnc1Cl [Compound 3] | – | chromatographic logP [1, 3]: 3.57; pest or weed control at 500 g/ha (Botrytis cinerea): 95% |
| Cn1cc(C(=O)Nc2ccccc2-c2ccc(/C=N\OCC3CC3)cc2)c(C(F)(F)F)n1 [Compound 4] | – | chromatographic logP [1, 3]: 3.77; Efficacy in % [2]: 91% |
| Cn1cc(C(=O)Nc2ccccc2-c2ccc(/C=N\OCC3CC3)cc2)c(C(F)F)n1 [Compound 7] | – | chromatographic logP [1, 3]: 3.53; Efficacy in % [2]: 100%; pest or weed control at 500 g/ha (Botrytis cinerea): 96%; pest or weed control at 500 g/ha (Puccinia recondita): 100% |
| Cc1nc(C(F)F)c(C(=O)Nc2ccccc2-c2ccc(/C=N\OCC3CC3)cc2)s1 [Compound 8] | – | chromatographic logP [1, 3]: 3.87; Efficacy in % [2]: 100%; pest or weed control at 500 g/ha (Botrytis cinerea): 85% |
| C=CCO/N=C/c1ccc(-c2ccccc2NC(=O)c2sc(C)nc2C(F)F)cc1 [Compound 9, N-[4′-(allyloxyimino-methyl)-biphenyl-2-yl]-4-difluoromethyl-2-methylthiazole-5-carboxamide] | – | chromatographic logP [1, 3]: 3.65; Efficacy in % [2]: 100%; pest or weed control at 500 g/ha (Botrytis cinerea): 95% |
| C=CCO/N=C\c1ccc(-c2ccccc2NC(=O)c2cn(C)nc2C(F)F)cc1 [Compound 10] | – | chromatographic logP [1, 3]: 3.32; Efficacy in % [2]: 100%; pest or weed control at 500 g/ha (Botrytis cinerea): 95%; pest or weed control at 500 g/ha (Puccinia recondita): 100% |
| C=CCO/N=C\c1ccc(-c2ccccc2NC(=O)c2cn(C)nc2C(F)(F)F)cc1 [Compound 11] | – | chromatographic logP [1, 3]: 3.53; Efficacy in % (Alternaria solani): 100% |
| C=CCO/N=C(\C)c1ccc(-c2ccccc2NC(=O)c2c(C)nn(C)c2F)cc1 [Compound 17, N-(4′-{1-(allyloxyimino)-ethyl}-biphenyl-2-yl)-5-fluoro-1,3-dimethyl-1H-pyrazole-4-carboxamide] | – | chromatographic logP [1]: 3.8 |
| C=C(C)CO/N=C(/C)c1ccc(-c2ccccc2NC(=O)c2c(C)nn(C)c2F)cc1 [Compound 36] | 4.18 | – |
| CC#CCO/N=C(/C)c1ccc(-c2ccccc2NC(=O)c2c(C)nn(C)c2F)cc1 [Compound 37] | 3.63 | – |
| C=CCO/N=C(/C)c1ccc(-c2ccccc2NC(=O)c2ccoc2C)cc1 [Compound 38] | 4.14 | – |
| C=CCO/N=C(/C)c1ccc(-c2ccccc2NC(=O)C2=C(C)OCCS2)cc1 [Compound 39] | 4.38 | – |
| CC#CCO/N=C(/C)c1ccc(-c2ccccc2NC(=O)c2cn(C)nc2C(F)(F)F)cc1 [Compound 40] | – | chromatographic logP [1, 3]: 3.67; pest or weed control at 500 g/ha (Puccinia recondita): 100% |
| CC#CCO/N=C(/C)c1ccc(-c2ccccc2NC(=O)c2cccnc2Cl)cc1 [Compound 41] | 3.48 | – |
| C=CC(C)O/N=C(/C)c1ccc(-c2ccccc2NC(=O)c2cccnc2Cl)cc1 (stereo not shown) [Compound 42] | 2.89 | – |
| C=C(C)CO/N=C(/C)c1ccc(-c2ccccc2NC(=O)c2sc(C)nc2C(F)(F)F)cc1 [Compound 44] | 3.49 | – |
| C=CC(C)O/N=C(/C)c1ccc(-c2ccccc2NC(=O)c2cn(C)nc2C(F)(F)F)cc1 (stereo not shown) [Compound 46] | 4.15 | – |
| C=CC(C)O/N=C(/C)c1ccc(-c2ccccc2NC(=O)c2ccoc2C)cc1 (stereo not shown) [Compound 47] | 4.52 | – |
| C=C(C)CO/N=C(/C)c1ccc(-c2ccccc2NC(=O)c2cn(C)nc2C(F)(F)F)cc1 [Compound 48] | 4.14 | – |
| CC#CCO/N=C(/C)c1ccc(-c2ccccc2NC(=O)c2ccoc2C)cc1 [Compound 50] | 3.95 | – |
| C=C(C)CO/N=C(/C)c1ccc(-c2ccccc2NC(=O)c2ccoc2C)cc1 [Compound 51] | 4.51 | – |
| C=C(C)CO/N=C(/C)c1ccc(-c2ccccc2NC(=O)c2cn(C)nc2C)cc1 [Compound 52] | 3.52 | – |
| C=CC(C)O/N=C(/C)c1ccc(-c2ccccc2NC(=O)c2cn(C)nc2C)cc1 (stereo not shown) [Compound 53] | 3.53 | – |
| C/C(=N\OCC=C(Cl)Cl)c1ccc(-c2ccccc2NC(=O)c2cn(C)nc2C)cc1 [Compound 54, N-(4′-{1-[3,3-dichloroallyloxyimino]ethyl}biphenyl-2-yl)-1,3-dimethyl-1H-pyrazole-4-carboxamide] | – | chromatographic logP [1]: 3.97 |
| CC#CCO/N=C(/C)c1ccc(-c2ccccc2NC(=O)c2cn(C)nc2C)cc1 [Compound 55] | – | chromatographic logP [1, 3]: 3.06; pest or weed control at 500 g/ha (Puccinia recondita): 100% |

| Compound | logP (pH 2.3) [1, 3] | further results |
| --- | --- | --- |
| C=CC(C)O/N=C(/C)c1ccc(-c2ccccc2NC(=O)c2cn(C)cc2C(F)(F)F)cc1 (stereo not shown) [Compound 57] | 4.41 | – |
| C=C(C)CO/N=C(/C)c1ccc(-c2ccccc2NC(=O)c2ccccc2C(F)(F)F)cc1 [Compound 58] | 4.64 | – |
| C=CC(C)O/N=C(/C)c1ccc(-c2ccccc2NC(=O)c2ccccc2C(F)(F)F)cc1 (stereo not shown) [Compound 59] | 4.65 | – |
| C=C(C)CO/N=C(/C)c1ccc(-c2ccccc2NC(=O)c2cccnc2Cl)cc1 [Compound 60] | 3.95 | – |
| C/C(=N/OCC=C(Cl)Cl)c1ccc(-c2ccccc2NC(=O)c2ccoc2C)cc1 [Compound 61] | 4.98 | – |
| C/C(=N/OCC=C(Cl)Cl)c1ccc(-c2ccccc2NC(=O)c2sc(C)nc2C(F)(F)F)cc1 [Compound 62] | 3.81 | – |
| C/C(=N/OCC=C(Cl)Cl)c1ccc(-c2ccccc2NC(=O)c2cccnc2Cl)cc1 [Compound 63, 2-chloro-N-{4′-[1-(3,3-dichloroallyloxyimino)ethyl]-biphenyl-2-yl}nicotinamide] | – | chromatographic logP [1]: 4.43 |
| C#CCO/N=C(\C)c1ccc(-c2ccccc2NC(=O)c2sc(C)nc2C(F)(F)F)cc1 [Compound 67] | 3.72 | – |
| C#CCO/N=C(\C)c1ccc(-c2ccccc2NC(=O)c2cccnc2Cl)cc1 [Compound 68] | 3.16 | – |
| C#CCO/N=C(/C)c1ccc(-c2ccccc2NC(=O)c2sc(C)nc2C(F)F)cc1 [Compound 69] | – | chromatographic logP [1, 3]: 3.45; pest or weed control at 500 g/ha (Puccinia recondita): 100% |
| C#CCO/N=C(\C)c1ccc(-c2ccccc2NC(=O)c2cn(C)nc2C(F)(F)F)cc1 [Compound 70] | 3.36 | – |
| C#CCO/N=C(\C)c1ccc(-c2ccccc2NC(=O)c2c(C)nn(C)c2F)cc1 [Compound 71] | 3.27 | – |
| C#CCO/N=C(/C)c1ccc(-c2ccccc2NC(=O)c2cn(C)nc2C(F)F)cc1 [Compound 72] | – | chromatographic logP [1, 3]: 3.14; pest or weed control at 500 g/ha (Puccinia recondita): 100% |
| C#CCO/N=C(\C)c1ccc(-c2ccccc2NC(=O)c2ccccc2C(F)(F)F)cc1 [Compound 73] | 3.83 | – |
| C#CCO/N=C(\C)c1ccc(-c2ccccc2NC(=O)C2=C(C)OCCS2)cc1 [Compound 74] | 3.81 | – |
| C#CCO/N=C(\C)c1ccc(-c2ccccc2NC(=O)c2cn(C)cc2C(F)(F)F)cc1 [Compound 75] | 3.6 | – |
| C#CCO/N=C(\C)c1ccc(-c2ccccc2NC(=O)c2ccoc2C)cc1 [Compound 77] | 3.59 | – |
| C#CCO/N=C(\C)c1ccc(-c2ccccc2NC(=O)c2cn(C)nc2C)cc1 [Compound 78] | 2.75 | – |
| C#CCO/N=C(\C)c1ccc(-c2ccccc2NC(=O)c2ccccc2I)cc1 [Compound 79] | 3.81 | – |
| C#CCO/N=C(\C)c1ccc(-c2ccccc2NC(=O)c2ccccc2Br)cc1 [Compound 80] | 3.74 | – |
| C#CCO/N=C(\C)c1ccc(-c2ccccc2NC(=O)c2ccccc2Cl)cc1 [Compound 81] | 3.73 | – |
| C#CCO/N=C/c1ccc(-c2ccccc2NC(=O)c2cccnc2Cl)cc1 [Compound 82] | 2.92 | – |
| C#CCO/N=C/c1ccc(-c2ccccc2NC(=O)c2sc(C)nc2C(F)(F)F)cc1 [Compound 83] | 3.48 | – |
| CC(=O)c1ccc(-c2ccccc2NC(=O)c2cccnc2Cl)cc1 [VIII-1, N-(4′-acetyl-biphenyl-2-yl)-2-chloronicotinamide] | – | chromatographic logP [1]: 2.12 |
| CC(=O)c1ccc(-c2ccccc2N)cc1 [XIV-1, 1-(2′-aminobiphenyl-4-yl)ethanone] | – | chromatographic logP [1]: 1.8 |
